Results reported in the NIST ThermoML archive (doi:10.1021/je0501843).
Where “and” joins values, the source holds several entries; their conditions need not be identical. Equal values may be shown once.

Experiment: molar heat capacity at constant volume
Conditions: Fluid (supercritical or subcritical phases), Vacuum adiabatic calorimetry

FC(F)C(F)(F)F [pentafluoroethane]
Conditions | molar heat capacity at constant volume
382 K, Mass density=585 kg/m3 | 117.04 J/K/mol
382 K, Mass density=687.5 kg/m3 | 116.38 J/K/mol
382 K, Mass density=772.5 kg/m3 | 113.59 J/K/mol
382 K, Mass density=880.7 kg/m3 | 113.14 J/K/mol
382 K, Mass density=972.5 kg/m3 | 113.55 J/K/mol and 110.23 J/K/mol
383 K, Mass density=403.3 kg/m3 | 116.83 J/K/mol
383 K, Mass density=502.6 kg/m3 | 115.94 J/K/mol
383 K, Mass density=585 kg/m3 | 116.44 J/K/mol
383 K, Mass density=687.4 kg/m3 | 115.8 J/K/mol
383 K, Mass density=772.4 kg/m3 | 112.32 J/K/mol
383 K, Mass density=880.7 kg/m3 | 112.41 J/K/mol
383 K, Mass density=972.4 kg/m3 | 107.88 J/K/mol and 110.36 J/K/mol
384 K, Mass density=403.3 kg/m3 | 115.53 J/K/mol
384 K, Mass density=502.6 kg/m3 | 114.75 J/K/mol
384 K, Mass density=585 kg/m3 | 115.28 J/K/mol
384 K, Mass density=687.4 kg/m3 | 113.97 J/K/mol
384 K, Mass density=772.4 kg/m3 | 111.67 J/K/mol
384 K, Mass density=880.6 kg/m3 | 112.26 J/K/mol
384 K, Mass density=972.3 kg/m3 | 108.78 J/K/mol and 109.57 J/K/mol
385 K, Mass density=403.2 kg/m3 | 109.7 J/K/mol
385 K, Mass density=502.5 kg/m3 | 112.54 J/K/mol
385 K, Mass density=584.9 kg/m3 | 115.82 J/K/mol
385 K, Mass density=687.4 kg/m3 | 113.72 J/K/mol
385 K, Mass density=772.3 kg/m3 | 112.59 J/K/mol
385 K, Mass density=880.6 kg/m3 | 111.79 J/K/mol
385 K, Mass density=972.3 kg/m3 | 110.01 J/K/mol and 109.27 J/K/mol
386 K, Mass density=403.2 kg/m3 | 109.65 J/K/mol
386 K, Mass density=502.5 kg/m3 | 114.07 J/K/mol
386 K, Mass density=584.9 kg/m3 | 117.48 J/K/mol
386 K, Mass density=687.3 kg/m3 | 115.04 J/K/mol
386 K, Mass density=772.3 kg/m3 | 114.08 J/K/mol
386 K, Mass density=880.5 kg/m3 | 113.14 J/K/mol
386 K, Mass density=972.2 kg/m3 | 111.04 J/K/mol and 111.43 J/K/mol
387 K, Mass density=403.2 kg/m3 | 111.98 J/K/mol
387 K, Mass density=502.5 kg/m3 | 114.1 J/K/mol
387 K, Mass density=584.9 kg/m3 | 115.44 J/K/mol
387 K, Mass density=687.3 kg/m3 | 115.22 J/K/mol
387 K, Mass density=772.2 kg/m3 | 113.77 J/K/mol
387 K, Mass density=880.4 kg/m3 | 113.04 J/K/mol
387 K, Mass density=972.1 kg/m3 | 109.68 J/K/mol and 111.27 J/K/mol
388 K, Mass density=403.2 kg/m3 | 113.46 J/K/mol
388 K, Mass density=502.5 kg/m3 | 111.2 J/K/mol
388 K, Mass density=584.8 kg/m3 | 114.82 J/K/mol
388 K, Mass density=687.2 kg/m3 | 114.32 J/K/mol
388 K, Mass density=772.2 kg/m3 | 113.36 J/K/mol
388 K, Mass density=880.4 kg/m3 | 110.83 J/K/mol
388 K, Mass density=972 kg/m3 | 109.02 J/K/mol and 109.9 J/K/mol
389 K, Mass density=403.2 kg/m3 | 112.17 J/K/mol
389 K, Mass density=502.4 kg/m3 | 110.52 J/K/mol
389 K, Mass density=584.8 kg/m3 | 116.36 J/K/mol
389 K, Mass density=687.2 kg/m3 | 114.28 J/K/mol
389 K, Mass density=772.1 kg/m3 | 114.22 J/K/mol
389 K, Mass density=880.3 kg/m3 | 112.08 J/K/mol
389 K, Mass density=972 kg/m3 | 110.08 J/K/mol and 110.71 J/K/mol
390 K, Mass density=403.1 kg/m3 | 112.23 J/K/mol
390 K, Mass density=502.4 kg/m3 | 112.47 J/K/mol
390 K, Mass density=584.8 kg/m3 | 115.03 J/K/mol
390 K, Mass density=687.2 kg/m3 | 115.41 J/K/mol
390 K, Mass density=772.1 kg/m3 | 115.46 J/K/mol
390 K, Mass density=880.2 kg/m3 | 113.85 J/K/mol
390 K, Mass density=971.9 kg/m3 | 113.14 J/K/mol and 111.04 J/K/mol
391 K, Mass density=403.1 kg/m3 | 115.12 J/K/mol
391 K, Mass density=502.4 kg/m3 | 111.21 J/K/mol
391 K, Mass density=584.7 kg/m3 | 113.95 J/K/mol
391 K, Mass density=687.1 kg/m3 | 114.69 J/K/mol
391 K, Mass density=772 kg/m3 | 114.4 J/K/mol
391 K, Mass density=880.2 kg/m3 | 113.13 J/K/mol
391 K, Mass density=971.8 kg/m3 | 113.73 J/K/mol and 111.12 J/K/mol
392 K, Mass density=403.1 kg/m3 | 113.94 J/K/mol
392 K, Mass density=502.4 kg/m3 | 111.32 J/K/mol
392 K, Mass density=584.7 kg/m3 | 113.44 J/K/mol
392 K, Mass density=687.1 kg/m3 | 113.17 J/K/mol
392 K, Mass density=772 kg/m3 | 112.45 J/K/mol
392 K, Mass density=880.1 kg/m3 | 111.39 J/K/mol
392 K, Mass density=971.7 kg/m3 | 108.99 J/K/mol and 110.55 J/K/mol
393 K, Mass density=403.1 kg/m3 | 113.84 J/K/mol
393 K, Mass density=502.3 kg/m3 | 114.93 J/K/mol
393 K, Mass density=584.7 kg/m3 | 112.26 J/K/mol
393 K, Mass density=687 kg/m3 | 114.98 J/K/mol
393 K, Mass density=771.9 kg/m3 | 113.77 J/K/mol
393 K, Mass density=880 kg/m3 | 112.82 J/K/mol
393 K, Mass density=971.6 kg/m3 | 109.6 J/K/mol and 110.84 J/K/mol
394 K, Mass density=403.1 kg/m3 | 113.19 J/K/mol
394 K, Mass density=502.3 kg/m3 | 113.53 J/K/mol
394 K, Mass density=584.6 kg/m3 | 113.56 J/K/mol
394 K, Mass density=687 kg/m3 | 116.48 J/K/mol
394 K, Mass density=771.9 kg/m3 | 114.28 J/K/mol
394 K, Mass density=880 kg/m3 | 113.31 J/K/mol
394 K, Mass density=971.6 kg/m3 | 113.46 J/K/mol and 112.41 J/K/mol
395 K, Mass density=403 kg/m3 | 112.66 J/K/mol
395 K, Mass density=502.3 kg/m3 | 112.95 J/K/mol
395 K, Mass density=584.6 kg/m3 | 114.13 J/K/mol
395 K, Mass density=687 kg/m3 | 114.63 J/K/mol
395 K, Mass density=771.8 kg/m3 | 113.37 J/K/mol
395 K, Mass density=879.9 kg/m3 | 112.11 J/K/mol
395 K, Mass density=971.5 kg/m3 | 112.76 J/K/mol and 111.6 J/K/mol
396 K, Mass density=403 kg/m3 | 114.19 J/K/mol
396 K, Mass density=502.3 kg/m3 | 115.6 J/K/mol
396 K, Mass density=584.6 kg/m3 | 113.53 J/K/mol
396 K, Mass density=686.9 kg/m3 | 113.17 J/K/mol
396 K, Mass density=771.8 kg/m3 | 113.35 J/K/mol
396 K, Mass density=879.9 kg/m3 | 112.93 J/K/mol
396 K, Mass density=971.4 kg/m3 | 112.77 J/K/mol and 110.2 J/K/mol
397 K, Mass density=403 kg/m3 | 115.11 J/K/mol
397 K, Mass density=502.2 kg/m3 | 113.37 J/K/mol
397 K, Mass density=584.5 kg/m3 | 112.42 J/K/mol
397 K, Mass density=686.9 kg/m3 | 113.72 J/K/mol
397 K, Mass density=771.7 kg/m3 | 113.23 J/K/mol
397 K, Mass density=879.8 kg/m3 | 113.97 J/K/mol
397 K, Mass density=971.3 kg/m3 | 112.64 J/K/mol and 111.54 J/K/mol
398 K, Mass density=403 kg/m3 | 115.94 J/K/mol
398 K, Mass density=502.2 kg/m3 | 111.91 J/K/mol
398 K, Mass density=584.5 kg/m3 | 113.66 J/K/mol
398 K, Mass density=686.8 kg/m3 | 116.24 J/K/mol
398 K, Mass density=771.7 kg/m3 | 114.52 J/K/mol
398 K, Mass density=879.7 kg/m3 | 113.6 J/K/mol
398 K, Mass density=971.3 kg/m3 | 113.46 J/K/mol and 112.92 J/K/mol
399 K, Mass density=502.2 kg/m3 | 114.43 J/K/mol
399 K, Mass density=584.5 kg/m3 | 115.44 J/K/mol
399 K, Mass density=686.8 kg/m3 | 115.5 J/K/mol
399 K, Mass density=771.6 kg/m3 | 114.85 J/K/mol
399 K, Mass density=879.7 kg/m3 | 112.05 J/K/mol
399 K, Mass density=971.2 kg/m3 | 112.08 J/K/mol
